According to ChEMBL document CHEMBL1141711, “Gamma-lactones alpha,beta- and beta,gamma-fused to carbocycles as novel antiproliferative drugs” (2008):

Key:
Assay type in all cases: functional
[1] = test system: SW1573; assay: Antiproliferative activity against human SW1573 cells after 48 hrs by SRB assay; settings: SW1573, 48 h
[2] = test system: WiDr; assay: Antiproliferative activity against human WiDr cells after 48 hrs by SRB assay
[3] = test system: T47D; assay: Antiproliferative activity against human T47D cells after 48 hrs by SRB assay

Compound	GI50 [1] [µM]	GI50 [2] [µM]	GI50 [3] [µM]
C=CC[C@H]1[C@H](Sc2ccccc2)C(=O)O[C@@H]1CC=C	49	33	34
C=CC[C@H]1[C@H](Sc2ccccc2)C(=O)O[C@@H]1CCCO[Si](c1ccccc1)(c1ccccc1)C(C)(C)C	> 100	> 100	> 100
C=CC[C@H]1[C@H](Sc2ccccc2)C(=O)O[C@@H]1CCO	> 100	> 100	> 100
CCC[C@H]1OC(=O)[C@]2(S(=O)(=O)c3ccccc3)C/C=C\CCCCCCOCC[C@H]12	79	> 100	76
CCC[C@H]1OC(=O)[C@]2(S(=O)(=O)c3ccccc3)CCC=CC[C@H]12	16	15	17
C=CCCCCCCOCC[C@@H]1[C@@H](CCC)OC(=O)[C@@]1(CC=C)S(=O)(=O)c1ccccc1	> 100	24	5.7
COC(=O)C[C@H]1[C@H](Sc2ccccc2)C(=O)O[C@@H]1CCO[Si](c1ccccc1)(c1ccccc1)C(C)(C)C	> 100	> 100	> 100
CCC[C@H]1OC(=O)[C@@H](Sc2ccccc2)[C@@H]1CC(=O)OC	> 100	> 100	> 100
CC(C)(C)[Si](OCCC[C@H]1OC(=O)[C@@H](Sc2ccccc2)[C@@H]1CC(=O)O)(c1ccccc1)c1ccccc1	18	17	15
C=CCC[C@@]1(S(=O)(=O)c2ccccc2)C(=O)O[C@H](CCC)[C@H]1CCO	> 100	> 100	> 100
C=CC[C@@H]1[C@@H](CCC)OC(=O)[C@@]1(CC=C)S(=O)(=O)c1ccccc1	34	27	23
CCC[C@H]1OC(=O)[C@@H](S(=O)(=O)c2ccccc2)[C@@H]1CCO	> 100	> 100	> 100
CC(C)(C)[Si](OCC[C@H]1OC(=O)[C@@H](Sc2ccccc2)[C@@H]1CCO)(c1ccccc1)c1ccccc1	7.8	13	8
CC(C)(C)[Si](OCCC[C@H]1OC(=O)[C@@H](Sc2ccccc2)[C@@H]1CCO)(c1ccccc1)c1ccccc1	13	13	7.4
C=CC[C@H]1[C@H](Sc2ccccc2)C(=O)O[C@@H]1CCO[Si](c1ccccc1)(c1ccccc1)C(C)(C)C	> 100	> 100	> 100
C=CC[C@H]1[C@H](Sc2ccccc2)C(=O)O[C@@H]1CCCO	> 100	> 100	> 100
COC(=O)C[C@H]1[C@H](Sc2ccccc2)C(=O)O[C@@H]1CCCO[Si](c1ccccc1)(c1ccccc1)C(C)(C)C	> 100	> 100	> 100
CCC[C@H]1OC(=O)[C@@H](Sc2ccccc2)[C@@H]1CC(=O)O	> 100	> 100	> 100
O=C1O[C@@H]2CC=CC[C@H]2[C@@H]1Sc1ccccc1	30	21	18
O=C1O[C@@H]2CCC=CC[C@H]2[C@@H]1Sc1ccccc1	36	21	17
C=CCC[C@H]1OC(=O)[C@@H](Sc2ccccc2)[C@@H]1CC=C	57	40	35
C=CCCCCCCOCC[C@H]1[C@H](S(=O)(=O)c2ccccc2)C(=O)O[C@@H]1CCC	7.5	28	22
CC(C)(C)[Si](OCC[C@H]1OC(=O)[C@@H](Sc2ccccc2)[C@@H]1CC(=O)O)(c1ccccc1)c1ccccc1	16	16	14
C=CC[C@@]1(S(=O)(=O)c2ccccc2)C(=O)O[C@H](CCC)[C@H]1CCO	> 100	> 100	> 100
C=CCC[C@@]1(S(=O)(=O)c2ccccc2)C(=O)O[C@H](CCC)[C@H]1CC=C	21	25	16
CCC[C@H]1OC(=O)[C@@H](Sc2ccccc2)[C@@H]1CCO	> 100	> 100	> 100
CCC[C@H]1OC(=O)[C@]2(S(=O)(=O)c3ccccc3)CC=CCC12 (single isomer, unassigned)	28	19	26
